Values quoted from earlier work as cited in patent publication US20250288585A1, “SYNERGISTIC COMPOSITIONS FOR ENHANCED HAIR GROWTH AND METHODS FOR TREATING HAIR LOSS” (The Johns Hopkins University, priority 2024, published 2025).

Experiments:
[1] = liposomal hydrogel system
[2] = tested on: follicular sulfotransferase; settings: topical 0.1% tretinoin, plucked hairs, in vitro
[3] = tested on: subjects with androgenetic alopecia; settings: topical tretinoin alone

| SMILES | permeation through skin ex vivo [1] | effect on expression of follicular sulfotransferase [2] | subjects with some hair regrowth [3] |
| --- | --- | --- | --- |
| Nc1cc(N2CCCCC2)nc(N)[n+]1[O-] [minoxidil] | enhanced the permeation |  |  |
| CC1=C(/C=C/C(C)=C/C=C/C(C)=C/C(=O)O)C(C)(C)CCC1 [tretinoin, all-trans-retinoic acid] | retained on the skin | influences the expression of follicular sulfotransferase | approximately 58% |
